Test results taken from paper PMC11731258, “The structural basis for high-affinity c-di-GMP binding to the GSPII-B domain of the traffic ATPase PilF from Thermus thermophilus” (The Journal of Biological Chemistry, 2024).
Where two headings read alike, the source gives them in different places.

What was measured:
[1] = target: T1, PilF1-889 (full-length PilF) (Thermus thermophilus, UniProt Q5SLC9); test: ITC c-di-GMP binding to full-length PilF; conditions: 20 °C; for Kd: pH 7.5, two-site model
T1 sequence (Q5SLC9 1-889): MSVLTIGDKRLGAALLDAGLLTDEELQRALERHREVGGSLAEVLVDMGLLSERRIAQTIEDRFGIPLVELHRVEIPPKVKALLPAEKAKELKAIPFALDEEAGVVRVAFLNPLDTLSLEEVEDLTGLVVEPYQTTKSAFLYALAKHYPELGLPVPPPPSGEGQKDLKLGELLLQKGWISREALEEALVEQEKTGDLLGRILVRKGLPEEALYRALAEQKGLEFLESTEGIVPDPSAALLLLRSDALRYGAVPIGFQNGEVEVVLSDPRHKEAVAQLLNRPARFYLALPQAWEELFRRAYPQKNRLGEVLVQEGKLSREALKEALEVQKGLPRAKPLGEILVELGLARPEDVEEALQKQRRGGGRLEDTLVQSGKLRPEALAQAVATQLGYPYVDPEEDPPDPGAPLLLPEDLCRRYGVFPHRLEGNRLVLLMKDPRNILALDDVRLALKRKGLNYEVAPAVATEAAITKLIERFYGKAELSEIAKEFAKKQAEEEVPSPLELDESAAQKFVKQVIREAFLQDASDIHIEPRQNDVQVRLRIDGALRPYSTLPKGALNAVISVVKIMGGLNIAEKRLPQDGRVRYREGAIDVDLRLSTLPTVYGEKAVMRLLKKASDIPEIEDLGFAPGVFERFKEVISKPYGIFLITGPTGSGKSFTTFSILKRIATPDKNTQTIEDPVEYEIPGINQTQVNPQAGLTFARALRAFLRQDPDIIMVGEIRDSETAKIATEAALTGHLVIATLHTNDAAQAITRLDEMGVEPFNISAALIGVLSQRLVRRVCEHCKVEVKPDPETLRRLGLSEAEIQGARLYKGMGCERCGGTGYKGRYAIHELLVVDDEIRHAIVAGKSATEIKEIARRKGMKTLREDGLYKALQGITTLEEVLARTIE
Protocol: (§1) To assess the ligand-binding capabilities of the various PilF constructs, triplicates of ITC measurements were recorded for each construct. The measurements were carried out using a MicroCal ITC200 (Malvern Panalytical). All ITC experiments were conducted at 20 °C with 50 mM Tris-HCl pH 7.5, 200 mM sodium chloride, 1 mM β-mercaptoethanol as the sample buffer. All protein samples were extensively dialyzed against the sample buffer and the buffer used for dialysis was used to dilute protein and c-di-GMP samples in preparation for the ITC measurements. Each measurement was conducted using the following protocol. In total, 39.8 μl c-di-GMP were titrated to 270 μl protein in 20 separate injections in 180 s intervals with a stirring speed of 750 rpm. After an initial delay of 120 s, the first injection of 0.2 μl c-di-GMP with a duration of 0.4 s was followed by 19 injections of 2 μl with a duration of 4 s. During the measurement, the feedback mode was set to high and the reference power to 11 μcal s^−1. To optimize precision of the measurements, protein and c-di-GMP concentrations were adjusted to the binding capabilities of the respective constructs and ranged from 5 to 200 μM for protein and 50 to 2000 μM for c-di-GMP. All thermograms were processed using Origin 7.0 (OriginLab) using a one-site– or two-site–binding model dependent on the number of expected binding events.

[2] = target: MshEN lacking the entire C-terminal subdomain; parameters: method as in PMID 27578558; conditions: entire C-terminal subdomain deleted; read-out: KD (ligand affinity); cited from earlier work
[3] = target: T2, PilF159-302 (GSPII-B domain) (Thermus thermophilus, UniProt Q5SLC9); test: ITC binding to PilF159-302; conditions: for N / ΔH / ΔS / Kd: ITC
T2 sequence (Q5SLC9 159-302): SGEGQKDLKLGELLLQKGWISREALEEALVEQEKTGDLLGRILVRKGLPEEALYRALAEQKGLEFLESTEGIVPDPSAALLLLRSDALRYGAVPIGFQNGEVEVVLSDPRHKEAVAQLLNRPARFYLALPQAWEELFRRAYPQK
Protocol: as §1, with “All ITC experiments were conducted at 20 °C with 50 mM Tris-HCl pH 7.5, 200 mM sodium chloride, 1 mM β-mercaptoethanol as the sample buffer.” left out

PilF159-302 K167R+E170D = target: T3, PilF159-302 K167R+E170D (Thermus thermophilus, UniProt Q5SLC9, E170D/K167R); test: ITC binding to PilF159-302 K167R-E170D; conditions: 20 °C
T3 sequence (Q5SLC9 159-302 K167R/E170D): T2 sequence (Q5SLC9 159-302)
Protocol: as §1

PilF159-302 L196R = target: T4, PilF159-302 L196R (Thermus thermophilus, UniProt Q5SLC9, L196R); test: ITC binding to PilF159-302 L196R; conditions: 20 °C
T4 sequence (Q5SLC9 159-302 L196R): T2 sequence (Q5SLC9 159-302)
Protocol: as §1

[4] = target: T5, PilF159-221 (lacking the C-terminal subdomain) (Thermus thermophilus, UniProt Q5SLC9); test: ITC binding to PilF159-221
T5 sequence (Q5SLC9 159-221): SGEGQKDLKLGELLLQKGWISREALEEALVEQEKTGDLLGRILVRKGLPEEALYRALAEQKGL
Protocol: as §1

Nc1nc2c(ncn2[C@@H]2O[C@@H]3COP(=O)(O)O[C@H]4[C@@H](O)[C@H](n5cnc6c(=O)[nH]c(N)nc65)O[C@@H]4COP(=O)(O)O[C@H]3[C@H]2O)c(=O)[nH]1 [c-di-GMP, cyclic dimeric guanosine monophosphate]
ΔH, site 1 ([1]; Table S1 site 1): -11.763 ± 0.78 kcal/mol
ΔS, site 1 ([1]; Table S1 site 1): -10.4 ± 2.7 cal/mol/deg
N, site 1 ([1]; Table S1 site 1 (low affinity)): 0.72 ± 0.10
ΔH, site 2 ([1]; Table S1 site 2): -15.683 ± 0.97 kcal/mol
ΔS, site 2 ([1]; Table S1 site 2): -16.5 ± 2.2 cal/mol/deg
N, site 2 ([1]; Table S1 site 2 (high affinity)): 0.59 ± 0.03
Kd ([1]; read-out: KD, high-affinity site (KD1 in text and Fig. 1C; site 2 in Table S1)): 10 ± 5 nM
Kd ([1]; read-out: KD, low-affinity site (KD2 in text and Fig. 1C; site 1 in Table S1)): 324 ± 2 nM
Kd [2]: 350 nM
fold higher affinity than MshEN ([3]; GSPII-B (KD 6 nM) vs MshEN (KD 500 nM)): 83 fold
N ([3]; 20 °C): 0.66 ± 0.02
ΔH ([3]; 20 °C): -10.795 ± 1.145 kcal/mol
ΔS ([3]; 20 °C): -0.8 ± 4.0 cal/mol/deg
N ([3]; 45 °C): 0.88 ± 0.11
ΔH ([3]; 45 °C): -13.327 ± 1.389 kcal/mol
ΔS ([3]; 45 °C): -6.6 ± 4.2 cal/mol/deg
Kd ([3]; 20 °C, pH 7.5): 6 nM
Kd ([3]; 45 °C): 20 nM
increase in the free enthalpy of binding compared to MshEN ([3]; at 20 °C): ~2.7 kcal/mol
N (PilF159-302 K167R+E170D): 0.76 ± 0.03
ΔH (PilF159-302 K167R+E170D): -12.843 ± 0.363 kcal/mol
ΔS (PilF159-302 K167R+E170D): -11.6 ± 1.3 cal/mol/deg
Kd (PilF159-302 K167R+E170D; pH 7.5): 92 ± 8 nM
N (PilF159-302 L196R): 1.23 ± 0.03
ΔH (PilF159-302 L196R): -8.148 ± 0.209 kcal/mol
ΔS (PilF159-302 L196R): 7.1 ± 0.8 cal/mol/deg
Kd (PilF159-302 L196R; pH 7.5): 23 ± 2 nM
N ([4]; ITC, 20 °C): 1.17 ± 0.02
ΔH ([4]; ITC, 20 °C): -11.453 ± 0.189 kcal/mol
ΔS ([4]; ITC, 20 °C): -5.8 ± 0.6 cal/mol/deg
Kd ([4]; ITC, 20 °C, pH 7.5): 54 ± 3 nM
fold higher KD than PilF159-302 ([4]; PilF159-302 6 nM): 9 fold
